# Measured values: patent US5162328A, “N-[3-[2-(1H-imidazol-1-yl)ethoxy]phenyl]-4-(2-thienyl)-2-pyrimidinamine and pharmacologically acceptable salts” (American Cyanamid Company, priority 1991, dated 1992)
# Like-named read-outs stand apart in the source and are kept apart here.
# Assay: Pharmacokinetics in dogs (plasma concentration by HPLC)
# Type: in vivo, dog (beagle)
# Conditions: dog, plasma, po, 2 mg/kg/day; for concentration at 0.5 h / concentration at 1 h / concentration at 2 h / concentration at 4 h / AUC(0-t) / Cmax / Tmax / half-life / AUC(0-inf): 2 mg/kg/day PO; for AUC(0-inf): read-out: AUCO- (to infinite time)
# Procedure: Since dogs are used in toxicology studies of antiasthma compounds, this species is chosen for pharmacokinetic evaluations. Use of the dog permits the pharmacokinetic comparison of 2 or more compounds in the same test animal, an evaluation which could not be conveniently performed in a smaller species. For each test compound, normal dogs are given a dose of 2.0 mg/kg/day for 5 consecutive days. There is a washout period of 1 month between the study of each of the test compounds in the same four dogs. Each test compound is administered as a solution of 5 mg/ml in either 0.05 or 0.1N HCl which is dispensed into a gelatin capsule immediately prior to dosage.
# Heparinized blood samples are obtained from each animal on the first, third and fifth day of dosage at 0.5, 1.0, 2.0, 4.0, 7.0, 12.0 and 24.0 hours after the dose. The samples are centrifuged immediately to obtain plasma which is frozen until analyzed.
# Analysis of plasma is performed using High Performance Liquid Chromatography (HPLC). The analytical procedure is essentially identical for each compound. The internal standard used for N-[3-[2-(1H-imidazol-1-yl)ethoxy]phenyl]-4-(2-thienyl)2-pyrimidinamine is 2-chloro-11-(4-methyl-1-piperazinyl)dibenz[b,f][1,4]oxazepine succinate, while for 2-methyl-N^4 -[4-(4-pyridinyl)-2-pyrimidinyl]-1,4-benzenediamine dihydrochloride and N-[4-[2-(diethylamino)ethoxy]phenyl]-4-(4-pyridinyl)-2-pyrimidnamine dihydrochloride the internal standard is 7-ethoxy-coumarin. In a typical procedure, a 0.4 ml volume of acetonitrile containing internal standard is added a 0.2 ml volume of serum. The sample is mixed by vortexing and centrifuged. The clear protein free supernatent fluid is decanted into a clean tube and evaporated to dryness. The dry residue is dissolved in 0.2 ml of HPLC mobile phase and 50 ul of this solution injected. Peaks corresponding to the test compound being measured and to the internal standard compound are quantitated by their absorption of ultraviolet light at 280 nm. Each set of analytical samples is accompanied by the analysis of a group of standard dog plasma samples prepared to contain amounts of the compound being measured which encompasses the concentration range of the samples.
# Four normal beagle dogs weighing between 9.2 and 10.2 Kg are used in the study.
structure (smiles),measurement,setting,value
"Cc1cc(Nc2nccc(-c3ccncc3)n2)ccc1N.Cl.Cl [Compound 2, 2-methyl-N^4-[4-(4-pyridinyl)-2-pyrimidinyl]-1,4-benzenediamine dihydrochloride, reference compound]",concentration at 0.5 h,"Dog 1, day 1, 0.5 h",512 ng/mL
same,concentration at 1 h,"Dog 1, day 1, 1 h",233 ng/mL
same,concentration at 2 h,"Dog 1, day 1, 2 h",55 ng/mL
same,concentration at 4 h,"Dog 1, day 1, 4 h",< 30 ng/mL
same,AUC(0-t),"Dog 1, day 1",458 ng·h/mL
same,Cmax,"Dog 1, day 1",512 ng/mL
same,Tmax,"Dog 1, day 1",30 min
same,half-life,"Dog 1, day 1",28.2 min
same,AUC(0-inf),"Dog 1, day 1",520 ng·h/mL
same,concentration at 0.5 h,"Dog 1, day 3, 0.5 h",375 ng/mL
same,concentration at 1 h,"Dog 1, day 3, 1 h",295 ng/mL
same,concentration at 2 h,"Dog 1, day 3, 2 h",122 ng/mL
same,concentration at 4 h,"Dog 1, day 3, 4 h",< 30 ng/mL
same,AUC(0-t),"Dog 1, day 3",470 ng·h/mL
same,Cmax,"Dog 1, day 3",375 ng/mL
same,Tmax,"Dog 1, day 3",30 min
same,half-life,"Dog 1, day 3",54 min
same,AUC(0-inf),"Dog 1, day 3",602 ng·h/mL
same,concentration at 0.5 h,"Dog 1, day 5, 0.5 h",120 ng/mL
same,concentration at 1 h,"Dog 1, day 5, 1 h",277 ng/mL
same,concentration at 2 h,"Dog 1, day 5, 2 h",50 ng/mL
same,concentration at 4 h,"Dog 1, day 5, 4 h",< 30 ng/mL
same,AUC(0-t),"Dog 1, day 5",293 ng·h/mL
same,Cmax,"Dog 1, day 5",277 ng/mL
same,Tmax,"Dog 1, day 5",60 min
same,AUC(0-inf),"Dog 1, day 5",349 ng·h/mL
same,concentration at 0.5 h,"Dog 2, day 1, 0.5 h",438 ng/mL
same,concentration at 1 h,"Dog 2, day 1, 1 h",210 ng/mL
same,concentration at 2 h,"Dog 2, day 1, 2 h",58 ng/mL
same,concentration at 4 h,"Dog 2, day 1, 4 h",< 30 ng/mL
same,AUC(0-t),"Dog 2, day 1",406 ng·h/mL
same,Cmax,"Dog 2, day 1",438 ng/mL
same,Tmax,"Dog 2, day 1",30 min
same,half-life,"Dog 2, day 1",31.2 min
same,AUC(0-inf),"Dog 2, day 1",471 ng·h/mL
same,concentration at 0.5 h,"Dog 2, day 3, 0.5 h",260 ng/mL
same,concentration at 1 h,"Dog 2, day 3, 1 h",78 ng/mL
same,concentration at 2 h,"Dog 2, day 3, 2 h",< 30 ng/mL
same,concentration at 4 h,"Dog 2, day 3, 4 h",< 30 ng/mL
same,AUC(0-t),"Dog 2, day 3",293 ng·h/mL
same,Cmax,"Dog 2, day 3",260 ng/mL
same,Tmax,"Dog 2, day 3",30 min
same,AUC(0-inf),"Dog 2, day 3",380 ng·h/mL
same,concentration at 0.5 h,"Dog 2, day 5, 0.5 h",350 ng/mL
same,concentration at 1 h,"Dog 2, day 5, 1 h",58 ng/mL
same,concentration at 2 h,"Dog 2, day 5, 2 h",< 30 ng/mL
same,concentration at 4 h,"Dog 2, day 5, 4 h",< 30 ng/mL
same,AUC(0-t),"Dog 2, day 5",190 ng·h/mL
same,Cmax,"Dog 2, day 5",350 ng/mL
same,Tmax,"Dog 2, day 5",30 min
same,AUC(0-inf),"Dog 2, day 5",255 ng·h/mL
same,concentration at 0.5 h,"Dog 3, day 1, 0.5 h",605 ng/mL
same,concentration at 1 h,"Dog 3, day 1, 1 h",234 ng/mL
same,concentration at 2 h,"Dog 3, day 1, 2 h",184 ng/mL
same,concentration at 4 h,"Dog 3, day 1, 4 h",< 30 ng/mL
same,AUC(0-t),"Dog 3, day 1",570 ng·h/mL
same,Cmax,"Dog 3, day 1",605 ng/mL
same,Tmax,"Dog 3, day 1",30 min
same,half-life,"Dog 3, day 1",58.2 min
same,AUC(0-inf),"Dog 3, day 1",776 ng·h/mL
same,concentration at 0.5 h,"Dog 3, day 3, 0.5 h",387 ng/mL
same,concentration at 1 h,"Dog 3, day 3, 1 h",284 ng/mL
same,concentration at 2 h,"Dog 3, day 3, 2 h",141 ng/mL
same,concentration at 4 h,"Dog 3, day 3, 4 h",< 30 ng/mL
same,AUC(0-t),"Dog 3, day 3",477 ng·h/mL
same,Cmax,"Dog 3, day 3",387 ng/mL
same,Tmax,"Dog 3, day 3",30 min
same,half-life,"Dog 3, day 3",61.2 min
same,AUC(0-inf),"Dog 3, day 3",635 ng·h/mL
same,concentration at 0.5 h,"Dog 3, day 5, 0.5 h",105 ng/mL
same,concentration at 1 h,"Dog 3, day 5, 1 h",289 ng/mL
same,concentration at 2 h,"Dog 3, day 5, 2 h",< 30 ng/mL
same,concentration at 4 h,"Dog 3, day 5, 4 h",< 30 ng/mL
same,AUC(0-t),"Dog 3, day 5",125 ng·h/mL
same,Cmax,"Dog 3, day 5",289 ng/mL
same,Tmax,"Dog 3, day 5",60 min
same,AUC(0-inf),"Dog 3, day 5",449 ng·h/mL
same,concentration at 0.5 h,"Dog 4, day 1, 0.5 h",482 ng/mL
same,concentration at 1 h,"Dog 4, day 1, 1 h",206 ng/mL
same,concentration at 2 h,"Dog 4, day 1, 2 h",< 30 ng/mL
same,concentration at 4 h,"Dog 4, day 1, 4 h",< 30 ng/mL
same,AUC(0-t),"Dog 4, day 1",399 ng·h/mL
same,Cmax,"Dog 4, day 1",482 ng/mL
same,Tmax,"Dog 4, day 1",30 min
same,AUC(0-inf),"Dog 4, day 1",630 ng·h/mL
same,concentration at 0.5 h,"Dog 4, day 3, 0.5 h",283 ng/mL
same,concentration at 1 h,"Dog 4, day 3, 1 h",44 ng/mL
same,concentration at 2 h,"Dog 4, day 3, 2 h",< 30 ng/mL
same,concentration at 4 h,"Dog 4, day 3, 4 h",< 30 ng/mL
same,AUC(0-t),"Dog 4, day 3",175 ng·h/mL
same,Cmax,"Dog 4, day 3",283 ng/mL
same,Tmax,"Dog 4, day 3",30 min
same,AUC(0-inf),"Dog 4, day 3",224 ng·h/mL
same,concentration at 0.5 h,"Dog 4, day 5, 0.5 h",420 ng/mL
same,concentration at 1 h,"Dog 4, day 5, 1 h",< 30 ng/mL
same,concentration at 2 h,"Dog 4, day 5, 2 h",< 30 ng/mL
same,concentration at 4 h,"Dog 4, day 5, 4 h",< 30 ng/mL
same,AUC(0-t),"Dog 4, day 5",105 ng·h/mL
same,Cmax,"Dog 4, day 5",420 ng/mL
same,Tmax,"Dog 4, day 5",30 min
same,AUC(0-inf),"Dog 4, day 5",575 ng·h/mL
same,concentration at 0.5 h,"Mean of 4 dogs, day 1, 0.5 h",509 ng/mL
same,concentration at 1 h,"Mean of 4 dogs, day 1, 1 h",221 ng/mL
same,concentration at 2 h,"Mean of 4 dogs, day 1, 2 h",74 ng/mL
same,concentration at 4 h,"Mean of 4 dogs, day 1, 4 h",< 30 ng/mL
same,concentration at 0.5 h,"Mean of 4 dogs, day 3, 0.5 h",326 ng/mL
same,concentration at 1 h,"Mean of 4 dogs, day 3, 1 h",175 ng/mL
same,concentration at 2 h,"Mean of 4 dogs, day 3, 2 h",66 ng/mL
same,concentration at 4 h,"Mean of 4 dogs, day 3, 4 h",< 30 ng/mL
same,concentration at 0.5 h,"Mean of 4 dogs, day 5, 0.5 h",249 ng/mL
same,concentration at 1 h,"Mean of 4 dogs, day 5, 1 h",156 ng/mL
same,concentration at 2 h,"Mean of 4 dogs, day 5, 2 h",< 30 ng/mL
same,concentration at 4 h,"Mean of 4 dogs, day 5, 4 h",< 30 ng/mL
same,AUC(0-t),"Mean, day 1",458 ng·h/mL
same,Cmax,"Mean, day 1",509 ng/mL
same,Tmax,"Mean, day 1",30 min
same,half-life,"Mean, day 1",39 min
same,AUC(0-inf),"Mean, day 1",599 ng·h/mL
same,AUC(0-t),"Mean, day 3",354 ng·h/mL
same,Cmax,"Mean, day 3",326 ng/mL
same,Tmax,"Mean, day 3",30 min
same,half-life,"Mean, day 3",57.6 min
same,AUC(0-inf),"Mean, day 3",460 ng·h/mL
same,AUC(0-t),"Mean, day 5",178 ng·h/mL
same,Cmax,"Mean, day 5",334 ng/mL
same,Tmax,"Mean, day 5",45 min
same,AUC(0-inf),"Mean, day 5",407 ng·h/mL
same,k el,"derived from mean of half-life values, read-out: elimination constant (converted)",0.000248 s⁻¹
